From PubChem BioAssay (NCI)
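A five-concentration, 48-hour dose response in 96-well plates underlies each endpoint, interpolated linearly between surrounding concentrations. At the TGI there is no net growth.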

How the values were obtained:
Test in all cases: NCI tumour cell line growth inhibition, 48 h
P388/ADR leukemia = tested on: P388/ADR leukemia
SN12K1 renal = tested on: SN12K1 renal
RXF-631 renal = tested on: RXF-631 renal

Row | Structure (SMILES) | TGI (P388/ADR leukemia) [µM] | TGI (SN12K1 renal) [µM] | TGI (RXF-631 renal) [µM]
1 | CN(C)c1cccc(OC(=O)NCCCl)c1 | > 100 | > 100 | 
2 | CSCC(CO)NC(=O)/C=C/c1c(C)[nH]c(=O)[nH]c1=O (configuration not stated) | > 875 | > 875 | 
3 | O=S(O)CCCSSSCCCS(=O)O |  |  | > 100
4 | c1ccc2c(c1)SP1Sc3ccccc3P21 (configuration not stated) | > 100 | > 100 | 
5 | CN(c1ccccc1)c1nc(=[N+]2CCCC2)ss1 |  |  | > 100
6 | CO/C=C1\OC(=O)C=C1OC | > 100 | > 100 | 
7 | c1ccc2c(c1)SCCc1cn[nH]c1-2 | > 100 | > 100 | 
